Test results reported in ChEMBL document CHEMBL3784984, “Cyclolinopeptides, cyclic peptides from flaxseed with osteoclast differentiation inhibitory activity” (Bioorg Med Chem Lett, 2016).
Non-standard residues stand in square brackets, D forms with d. Residues, ends and D or L forms follow the SMILES beside them. Met(O) = CS(=O)CC[C@H](N)C(=O)O

Key:
Bone marrow cell = test: Inhibition of RANKL-induced osteoclast differentiation in ICR mouse bone marrow cells after 48 hrs by TRAP assay; format: functional, cell-based
[1] = Cytotoxicity against ICR mouse bone marrow cells assessed as cell viability after 24 hrs by MTT assay; format: cell-based

Row | IC50 (Bone marrow cell) | Compound | Activity [1]
1 | 5.53 µM | CC[C@H](C)[C@@H]1NC(=O)[C@H](C(C)C)NC(=O)[C@H](Cc2ccccc2)NC(=O)[C@H](Cc2ccccc2)NC(=O)[C@@H]2CCCN2C(=O)[C@@H]2CCCN2C(=O)[C@H]([C@@H](C)CC)NC(=O)[C@H](CC(C)C)NC(=O)[C@H](CCSC)NC1=O (cyclo(FFVIMLIPP)) | Non-toxic
2 | 14.9 µM | CC[C@H](C)[C@@H]1NC(=O)[C@H](C(C)C)NC(=O)[C@H](Cc2ccccc2)NC(=O)[C@H](Cc2ccccc2)NC(=O)[C@@H]2CCCN2C(=O)[C@@H]2CCCN2C(=O)[C@H]([C@@H](C)CC)NC(=O)[C@H](CC(C)C)NC(=O)[C@H](CC[S+](C)[O-])NC1=O (stereo not given in full) (cyclo(FFVI[Met(O)]LIPP)) | Non-toxic
3 | 0.49 µM | CC[C@H](C)[C@@H]1NC(=O)[C@H](Cc2c[nH]c3ccccc23)NC(=O)[C@H](Cc2ccccc2)NC(=O)[C@H](Cc2ccccc2)NC(=O)[C@@H]2CCCN2C(=O)[C@H](CCSC)NC(=O)[C@H](CC(C)C)NC(=O)[C@H](CCSC)NC1=O (cyclo(FFWIMLMP)) | Non-toxic
4 | 4.67 µM | CC[C@H](C)[C@@H]1NC(=O)[C@H](Cc2c[nH]c3ccccc23)NC(=O)[C@H](Cc2ccccc2)NC(=O)[C@H](Cc2ccccc2)NC(=O)[C@@H]2CCCN2C(=O)[C@H](CC[S+](C)[O-])NC(=O)[C@H](CC(C)C)NC(=O)[C@H](CCSC)NC1=O (stereo not given in full) (cyclo(FFWIML[Met(O)]P)) | Non-toxic
5 | 3.86 µM | CC[C@H](C)[C@@H]1NC(=O)[C@H](Cc2c[nH]c3ccccc23)NC(=O)[C@H](Cc2ccccc2)NC(=O)[C@H](Cc2ccccc2)NC(=O)[C@@H]2CCCN2C(=O)[C@H](CC(C)C)NC(=O)[C@H](CC(C)C)NC(=O)[C@H](CC[S+](C)[O-])NC1=O (stereo not given in full) (cyclo(FFWI[Met(O)]LLP)) | Non-toxic
6 | 0.83 µM | CC[C@H](C)[C@@H]1NC(=O)[C@H](Cc2c[nH]c3ccccc23)NC(=O)[C@H](Cc2ccccc2)NC(=O)[C@H](Cc2ccccc2)NC(=O)[C@@H]2CCCN2C(=O)[C@H](CCSC)NC(=O)[C@H](CC(C)C)NC(=O)[C@H](CC[S+](C)[O-])NC1=O (stereo not given in full) (cyclo(FFWI[Met(O)]LMP)) | Non-toxic
7 | 4.04 µM | CC[C@H](C)[C@@H]1NC(=O)[C@H](Cc2c[nH]c3ccccc23)NC(=O)[C@H](Cc2ccccc2)NC(=O)[C@H](Cc2ccccc2)NC(=O)[C@@H]2CCCN2C(=O)[C@H](CC[S+](C)[O-])NC(=O)[C@H](CC(C)C)NC(=O)[C@H](CC[S+](C)[O-])NC1=O (stereo not given in full) (cyclo(FFWI[Met(O)]L[Met(O)]P)) | Non-toxic
8 | 0.6 µM | CSCC[C@@H]1NC(=O)[C@H](C(C)C)NC(=O)[C@H](Cc2c[nH]c3ccccc23)NC(=O)[C@H](Cc2ccccc2)NC(=O)[C@H](Cc2ccccc2)NC(=O)[C@@H]2CCCN2C(=O)[C@H](CCSC)NC(=O)[C@H](CC(C)C)NC1=O (cyclo(FFWVMLMP)) | Non-toxic
9 | 0.47 µM | CSCC[C@@H]1NC(=O)[C@H](C(C)C)NC(=O)[C@H](Cc2c[nH]c3ccccc23)NC(=O)[C@H](Cc2ccccc2)NC(=O)[C@H](Cc2ccccc2)NC(=O)[C@@H]2CCCN2C(=O)[C@H](CC[S+](C)[O-])NC(=O)[C@H](CC(C)C)NC1=O (stereo not given in full) (cyclo(FFWVML[Met(O)]P)) | Non-toxic
10 | 0.59 µM | CSCC[C@@H]1NC(=O)[C@H](CC(C)C)NC(=O)[C@H](CC[S+](C)[O-])NC(=O)[C@H](C(C)C)NC(=O)[C@H](Cc2c[nH]c3ccccc23)NC(=O)[C@H](Cc2ccccc2)NC(=O)[C@H](Cc2ccccc2)NC(=O)[C@@H]2CCCN2C1=O (stereo not given in full) (cyclo(FFWV[Met(O)]LMP)) | Non-toxic
11 | 0.58 µM | CC(C)C[C@@H]1NC(=O)[C@H](CC[S+](C)[O-])NC(=O)[C@H](C(C)C)NC(=O)[C@H](Cc2c[nH]c3ccccc23)NC(=O)[C@H](Cc2ccccc2)NC(=O)[C@H](Cc2ccccc2)NC(=O)[C@@H]2CCCN2C(=O)[C@H](CC[S+](C)[O-])NC1=O (stereo not given in full) (cyclo(FFWV[Met(O)]L[Met(O)]P)) | Non-toxic
12 | 15.3 µM | CC[C@H](C)[C@@H]1NC(=O)[C@H](Cc2ccccc2)NC(=O)[C@H](CC(C)C)NC(=O)[C@@H]2CCCN2C(=O)[C@H](Cc2ccccc2)NC(=O)[C@H](C(C)C)NC(=O)[C@H](CC(C)C)NC(=O)[C@H](CCSC)NC1=O (cyclo(FIMLVFPL)) | Non-toxic
13 | > 20 µM | CC[C@H](C)[C@@H]1NC(=O)[C@H](Cc2ccccc2)NC(=O)[C@H](CC(C)C)NC(=O)[C@@H]2CCCN2C(=O)[C@H](Cc2ccccc2)NC(=O)[C@H](C(C)C)NC(=O)[C@H](CC(C)C)NC(=O)[C@H](CC[S+](C)[O-])NC1=O (stereo not given in full) (cyclo(FI[Met(O)]LVFPL)) | Non-toxic
14 | 7.5 µM | COc1cc(/C=C/C(=O)CC(=O)/C=C/c2ccc(O)c(OC)c2)ccc1O [CURCUMIN] | 
15 | 12.2 µM | CC[C@H](C)[C@@H]1NC(=O)[C@H](CC(C)C)NC(=O)[C@H](Cc2ccccc2)NC(=O)[C@H](Cc2ccccc2)NC(=O)[C@@H]2CCCN2C(=O)[C@@H]2CCCN2C(=O)[C@H](C(C)C)NC(=O)[C@H](CC(C)C)NC(=O)[C@H]([C@@H](C)CC)NC1=O [CYCLOLINOPEPTIDE A] (cyclo(FFLIILVPP)) | Non-toxic
16 | 17.2 µM | CC(C)Oc1ccc2c(=O)c(-c3ccccc3)coc2c1 [IPRIFLAVONE] | 
